Experimental data published in patent publication US7601746B2 (Shionogi & Co., Ltd., priority 2003, dated 2009).

molecular target: T1, human TPO receptor (hTPOR) (Homo sapiens, UniProt P40238); assay: Thrombopoietic activity: proliferation of TPO dependent BaF/hTPOR cells (WST-1, absorbance at 450 nm); assay type: cell-based; details: 20 h + 4 h WST-1, ED50 = half concentration of the concentration showing the maximum thrombopoietic activity, Table 1
T1 construct: expressed in transfected cells; host or cells: BaF-B03 (murine IL-3 dependent cell line)
T1 sequence (P40238 26-635): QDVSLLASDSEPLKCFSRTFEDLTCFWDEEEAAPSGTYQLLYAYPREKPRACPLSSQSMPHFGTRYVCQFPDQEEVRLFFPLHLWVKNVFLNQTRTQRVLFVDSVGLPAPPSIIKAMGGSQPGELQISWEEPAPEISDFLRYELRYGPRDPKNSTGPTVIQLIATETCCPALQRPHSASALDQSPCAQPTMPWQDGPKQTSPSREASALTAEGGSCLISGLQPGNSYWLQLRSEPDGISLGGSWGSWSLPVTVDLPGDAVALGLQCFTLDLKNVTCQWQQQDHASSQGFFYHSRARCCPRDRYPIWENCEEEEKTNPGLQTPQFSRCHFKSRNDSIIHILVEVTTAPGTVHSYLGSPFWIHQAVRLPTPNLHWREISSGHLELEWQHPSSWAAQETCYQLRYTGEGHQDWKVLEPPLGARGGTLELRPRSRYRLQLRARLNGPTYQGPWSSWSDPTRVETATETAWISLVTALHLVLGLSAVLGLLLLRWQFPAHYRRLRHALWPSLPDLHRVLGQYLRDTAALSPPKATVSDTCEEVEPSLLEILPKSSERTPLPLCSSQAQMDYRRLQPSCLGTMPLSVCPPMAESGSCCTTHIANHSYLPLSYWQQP
Method in brief: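 Proliferation read-out: WST-1 absorbance at 450 nm after 20 h compound exposure plus 4 h reagent, using IL-3-deprived BaF/hTPOR cells (5×10^4 per well) dependent on human TPO receptor signalling. ED50 defined as half the concentration producing maximal activity.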

Structure (SMILES)	EC50 [nM]
CCCCCCOCCC(OC)c1cccc(-c2csc(NC(=O)c3cc(Cl)c(C=C(C)C(=O)O)c(Cl)c3)n2)c1F (stereo not shown) [Compound B101, 3-(2,6-dichloro-4-{4-[2-fluoro-3-(3-n-hexyloxy-1-methyloxypropyl)phenyl]thiazol-2-ylcarbamoyl)phenyl]-2-methylacrylic acid]	1.9
CCCCCCOCCCc1cccc(-c2csc(NC(=O)c3cc(F)c(/C=C(\C)C(=O)O)c(F)c3)n2)c1OC [Compound B505, (E)-3-(2,6-difluoro-4-{4-[3-(3-hexyloxypropyl)-2-methyloxyphenyl]thiazol-2-ylcarbamoyl}phenyl)-2-methylacrylic acid]	12
CC(=Cc1c(F)cc(C(=O)Nc2nc(-c3cccc(CCCOCCC4CCCC4)c3F)cs2)cc1F)C(=O)O [Compound B44, 3-[4-(4-{3-[3-(2-cyclopentylethyloxy)propyl]-2-fluorophenyl}thiazol-2-ylcarbamoyl}-2,6-difluorophenyl)-2-methylacrylic acid]	1.27
COc1c(COCCCC(C)C)cccc1-c1csc(NC(=O)c2cc(F)c(/C=C(\C)C(=O)O)c(F)c2)n1 [Compound B1938]	12.7
CC(=Cc1c(F)cc(C(=O)Nc2nc3c(s2)CCc2c(CCCOCC(C)(C)C)cccc2-3)cc1F)C(=O)O [Compound A6, 3-(2,6-difluoro-4-{4,5-dihydro-6-[3-(2,2-dimethylpropyloxy)propyl]naphtho[1,2-d]thiazol-2-ylcabamoyl}phenyl)-2-methylacrylic acid]	1.04
CCCCCOCCCc1cccc(-c2csc(NC(=O)c3cc(Cl)c(C=C(C)C(=O)O)c(Cl)c3)n2)c1F [Compound B90]	1.15
COC(CCc1cccc2c1CCc1sc(NC(=O)c3cc(F)c(C=C(C)C(=O)O)c(F)c3)nc1-2)C(C)(C)C (stereo not shown) [Compound A4, 3-{2,6-difluoro-4-[4,5-dihydro-6-(3-methyloxy-4,4-dimethylpentyl)naphtho[1,2-d]thiazol-2-ylcabamoyl]phenyl}-2-methylacrylic acid]	1.8

Results, then the compound that gave them:

EC50 [nM]	Structure (SMILES)
18.4	CCCCCOCCc1cccc(-c2csc(NC(=O)c3cc(Cl)c(/C=C(\C)C(=O)O)c(Cl)c3)n2)c1OC [Compound B1925, (E)-3-(2,6-dichloro-4-{4-[2-methyloxy-3-(2-pentyloxyethyl)phenyl]thiazol-2-ylcarbamoyl)phenyl)-2-methylacrylic acid]
14.2	CCCCCCOCc1cccc(-c2csc(NC(=O)c3cc(Cl)c(/C=C(\OC)C(=O)O)c(Cl)c3)n2)c1OC [Compound B1994, (Z)-3-{2,6-dichloro-4-[4-(3-hexyloxymethyl-2-methyloxyphenyl)thiazol-2-ylcarbamoyl]phenyl}-2-methyloxyacrylic acid]
6.5	CCCCCCCCCC(OC)c1cccc(-c2csc(NC(=O)c3cc(Cl)c(/C=C(\OC)C(=O)O)c(Cl)c3)n2)c1OC (stereo not shown) [Compound B1437, (Z)-3-(2,6-dichloro-4-{4-[2-methyloxy-3-(1-methyloxydecyl)phenyl]thiazol-2-ylcarbamoyl}phenyl)-2-methyloxyacrylic acid]
13	COc1c(COCCC(C)(C)C)cccc1-c1csc(NC(=O)c2cc(F)c(/C=C(\C)C(=O)O)c(F)c2)n1 [Compound B1934, (E)-3-(4-{4-[3-(3,3-dimethylbutyloxymethyl)-2-methyloxyphenyl]thiazol-2-ylcarbamoyl}-2,6-difluorophenyl)-2-methylacrylic acid]

same assay, conditions: 20 h + 4 h WST-1, ED50 = half concentration of the concentration showing the maximum thrombopoietic activity, Table 2

EC50 [nM]	Structure (SMILES)
22.8	CCCOCCCc1cccc(-c2nc(NC(=O)c3cc(Cl)c(/C=C(\C)C(=O)O)c(Cl)c3)sc2OC)c1 [Compound B1863, (E)-3-(2,6-dichloro-4-{5-methyloxy-4-[3-(3-propyloxypropyl)phenyl]thiazol-2-ylcarbamoyl}phenyl)-2-methylacrylic acid]
22.3	CO/C(=C\c1c(Cl)cc(C(=O)Nc2nc(-c3cccc(CCCOCC4CCCC4)c3OC)cs2)cc1Cl)C(=O)O [Compound B1951, (Z)-3-(2,6-dichloro-4-{4-[3-(3-cyclopentylmethyloxypropyl)-2-methyloxyphenyl]thiazol-2-ylcarbamoyl}phenyl)-2-methyloxyacrylic acid]
